Test results taken from patent US20260284009A1, “COMPOUNDS FOR NOS-RELATED CANCERS AND METHODS OF USE” (YISSUM RESEARCH DEVELOPMENT COMPANY OF THE HEBREW …, priority 2023, published 2026).

Key:
SH-SY5Y cells [1] = test: Western blots of 3-Ntyr, mTOR pathway components and Syp in SH-SY5Y cell lysate; format: cell-based, human; details: western blot normalized for β-actin, 100 μM 7-NI or 20 nM siRNA
Description: In FIGS. 4A-4D, for quantitative analysis data, all individual data series are presented as biological replicates (n=4) for all groups. Data were normalized for β-actin and are presented as mean±SEM. Statistical significance was determined using a One-way ANOVA followed by Fisher's LSD multiple comparison post hoc test. *P<0.05 and **P<0.01.
FIG. 4A: Representative western blots of 3-Ntyr prepared from cell lysate of SH-SY5Y cells following administration of the control (“SH-SY5Y”—Series 1), 100 μM 7-NI (“SH-SY5Y +7-NI”—Series 2), or 20 nM siRNA (SEQ ID NO: 4) (“SH-SY5Y+si-nNOS”—Series 3).
FIG. 4B: Quantitative analysis of 3-Ntyr levels for the experiments of FIG. 4A.
FIG. 4C: Representative western blots of mTOR, p-mTOR, TSC-2, AKT, pAKT, RPS6, pRPS6, and Syp prepared from the cell lysate of SH-SY5Y cells following administration of the control (“SH-SY5Y”—Series 1), 100 μM 7-NI (“SH-SY5Y+7-NI”—Series 2), or 20 nM siRNA (SEQ ID NO: 4) (“SH-SY5Y+si-nNOS”—Series 3).
FIG. 4D: Quantitative analysis of mTOR, p-mTOR, TSC-2, AKT, pAKT, RPS6, pRPS6, and Syp levels for the experiments of FIG. 4C.

U87-MG cells = test: Xenograft glioblastoma model, U87-MG cells in NSG mice: survival experiment; format: in vivo; details: 80 mg/kg or 120 mg/kg 7-NI intraperitoneally daily, vehicle-treated mice 35 days
Description: A xenograft glioblastoma model was generated by injecting 1.0×10^6 U87-MG cells (in PBS) into the subcutaneous tissue in the flank of NOD SCID Gamma (NSG) male (n=40) and female mice (n=5). Mice were 6-7 weeks old at time of injections. Mice were divided into groups and treatment was started when tumor volume reached 50 mm^3.
A survival experiment was performed in the mice, the treatment groups were saline (“Vehicle”) (n=10), 80 mg/kg 7-NI (n=10), and 120 mg/kg 7-NI (n=8). Treatments were administered intraperitoneally daily.

SH-SY5Y cells [2] = test: Western blot of SH-SY5Y cells (3-Ntyr, mTOR pathway proteins, synaptophysin); format: cell-based, human; details: 100 μM 7-NI, 24 hr
Description: Human neuroblastoma (“NB”) SH-SY5Y cells were obtained from the American Type Culture Collection (ATCC) and maintained in Dulbecco's modified Eagle's medium (DMEM) and Ham's F-12 (1:1) supplemented with 10% fetal bovine serum, 2 mM L-glutamine, and 100 U/ml penicillin-G/[…] streptomycin in the humidified atmosphere (37° C., 5% CO2). Cells were plated onto 25 cm^2 and 75 cm^2 at a density of […] respectively for Western blotting (WB) and 1×10^5 for immunofluorescence. The SH-SY5Y cells were treated with 100 μM 7-nitroindazole (7-NI) for 24 hr. This concentration was confirmed in the dose-response experiment (FIG. 1) using an MTT viability assay.
Cells were lysed in ice-cold RIPA buffer containing 50 mM Tris-HCl, 1% Nonidet P-40, 0.25% sodium deoxycholate, 150 mM NaCl, protease-, and phosphatase inhibitor cocktails, pH 7.4. After sonication, the lysates were centrifuged at 17,000 g for 30 min at 4° C., and the supernatant was collected. The protein concentrations were determined with the BCA protein assay. Proteins were resolved by SDS-PAGE, transferred to a PVDF membrane, and probed with the following antibodies: anti-pMTOR (rabbit, diluted 1:1000), anti-mTOR (rabbit, diluted 1:1000), anti-TSC2 (rabbit, diluted 1:1000), anti-nNOS (rabbit, diluted 1:1000), anti-pAKT (rabbit, diluted 1:1000), anti-AKT (rabbit, diluted 1: 1000), anti-pRPS6 (rabbit, diluted 1:1000), anti-RPS6 (mouse, diluted 1:1000), anti-synaptophysin (mouse, diluted 1:1000), anti-β-actin (rabbit, diluted 1:1000), anti-3-Nitrotyrosine (rabbit, diluted 1:5000) from Abcam. All primary antibodies, except anti-3-Nitrotyrosine, were purchased from Cell Signaling Technology. The blots were then visualized using an enhanced chemiluminescence (ECL) system.
SH-SY5Y cells were plated in 6 well plates, as well as on 22 mm^2 coverslips at a density of 6.0×10^4 cells/cm^2 and transfected with 20 nM nNOS siRNA (SEQ ID NO: 4) for 24 h, with the use of Lipofectamine RNAi MAX (56530, Invitrogen) according to the manufacturer's protocol. Then cells were washed with phosphate-buffered saline (PBS) and harvested for WB and fixed for immunofluorescence.

SH-SY5Y cells [3] = test: Clonogenic survival assay in SH-SY5Y cells; format: cell-based, human; details: 7-NI, 14 days
Description: Cells were seeded into 6-well plates at concentrations of 500/well or 1000/well in triplicates. After 24 hours, 7-NI was added, or cells were transiently transfected with siRNA-nNOS, as described above (SEQ ID NO: 4), before changing to serum-containing medium. Cells were incubated for 14 days to form visible colonies. Colonies were stained with crystal violet, washed with PBS, air-dried, and imaged. The colonies were visualized using ImageJ software. Cell colonies of greater than 50 cells were identified and counted.

SH-SY5Y cells [4] = test: Xenograft neuroblastoma model, SH-SY5Y cells in NSG mice; format: in vivo; details: NSG male mice, 80 mg/kg 7-NI intraperitoneally three times per week, one month, vs control
Description: A xenograft neuroblastoma model was generated by injecting 4.0×10^6 SH-SY5Y cells (in a 50:50 mixture of PBS and matrigel basement membrane matrix) into the subcutaneous tissue in the flank of NOD SCID Gamma (NSG) male mice. Mice were 6-8 weeks old at time of injections. The mice were examined for 1 month.
Two treatment groups of mice were used (n=8), wherein one group was administered control, and the second group was administered 80 mg/kg of 7-NI administered intraperitoneally three times per week. Treatment started after five days from the injection with SH-SY5Y cells. After one month, all mice were euthanized, and tumors were harvested for ex vivo analysis and histology. Tumor volume was measured using calipers and was calculated as (length^2*width)/2

U87-MG-xenografted mice = test: Tumor growth in U87-MG-xenografted mice; format: in vivo; details: 10 mg/kg, compared to the vehicle (FIGS. 16-17)
Description: In a particular example, in vitro and in vivo experiments were performed using U87-MG cells and U87-MG-xenografted mice, respectively, as a glioblastoma model.

SMILES	expression levels of 3-nitrotyrosine (3-Ntyr) (SH-SY5Y cells [1])	expression levels of AKT (SH-SY5Y cells [1])	expression levels of RPS6 (SH-SY5Y cells [1])	expression levels of TSC-2 (SH-SY5Y cells [1])	expression levels of mTOR (SH-SY5Y cells [1])	expression levels of p-mTOR (SH-SY5Y cells [1])	expression levels of pAKT (SH-SY5Y cells [1])	expression levels of pRPS6 (SH-SY5Y cells [1])	expression levels of synaptophysin (Syp) (SH-SY5Y cells [1])	median survival (U87-MG cells)	3-Ntyr levels (SH-SY5Y cells [2])	levels of TSC-2 (SH-SY5Y cells [2])	levels of synaptophysin (SH-SY5Y cells [2])	phosphorylation of RPS6 (SH-SY5Y cells [2])	phosphorylation of mTOR (SH-SY5Y cells [2])	phosphorylation of protein kinase-B (AKT) (SH-SY5Y cells [2])	number of colonies (SH-SY5Y cells [3])	average tumor size (SH-SY5Y cells [4])	average tumor size (U87-MG-xenografted mice)
O=[N+]([O-])c1cccc2cn[nH]c12 [7-NI, 7-nitroindazole]	significant decrease	significant decrease	significant decrease	significant decrease	significant decrease	significant decrease	significant decrease	significant decrease	significant decrease	~ 65 days	halved	significant increase	significantly decreased	reduced	decrease	reduced	decrease	significantly smaller	–
CC(=N)NCCCC[C@H](N)C(=O)O [L-NIL, N^6-(1-iminoethyl)-L-lysine]	–	–	–	–	–	–	–	–	–	–	–	–	–	–	–	–	–	–	significantly smaller
